# Measured values reported in patent US6750202B1, “Phosphinate peptide analogs for the treatment of fibrotic disorders” (priority 1998, dated 2004).
# *1 amine or outer side, *2 acyl side, *3 side chain or, on linkers, in order; H or OH if unused. Where a SMILES comes first, the peptide text is derived from it. [ ]: non-standard residue; d: D form. The star is where a group is joined. X1 = C[C@H](CP(=O)(O)[C@H](Cc1ccccc1)N[*:1])C(=O)[*:2]; Cbz = O=C(OCc1ccccc1)*
# Experiments:
# [1] = molecular target: recombinant PCP (procollagen C-proteinase) (Homo sapiens, UniProt P13497); settings: 100 nM inhibitor; FIG. 1
# [2] = system: human meprin; settings: concentrations of up to 100 nM; FIG. 3
# Experimental: The meprin activity test was carried out in a completely analogous manner to the in-vitro assay for measuring PCP activity. Instead of the recombinant PCP, use was made of human meprin, which also transforms the fluorescence-labeled decapeptide.
# Sequence of recombinant PCP (procollagen C-proteinase) (P13497 121-986, species assumed): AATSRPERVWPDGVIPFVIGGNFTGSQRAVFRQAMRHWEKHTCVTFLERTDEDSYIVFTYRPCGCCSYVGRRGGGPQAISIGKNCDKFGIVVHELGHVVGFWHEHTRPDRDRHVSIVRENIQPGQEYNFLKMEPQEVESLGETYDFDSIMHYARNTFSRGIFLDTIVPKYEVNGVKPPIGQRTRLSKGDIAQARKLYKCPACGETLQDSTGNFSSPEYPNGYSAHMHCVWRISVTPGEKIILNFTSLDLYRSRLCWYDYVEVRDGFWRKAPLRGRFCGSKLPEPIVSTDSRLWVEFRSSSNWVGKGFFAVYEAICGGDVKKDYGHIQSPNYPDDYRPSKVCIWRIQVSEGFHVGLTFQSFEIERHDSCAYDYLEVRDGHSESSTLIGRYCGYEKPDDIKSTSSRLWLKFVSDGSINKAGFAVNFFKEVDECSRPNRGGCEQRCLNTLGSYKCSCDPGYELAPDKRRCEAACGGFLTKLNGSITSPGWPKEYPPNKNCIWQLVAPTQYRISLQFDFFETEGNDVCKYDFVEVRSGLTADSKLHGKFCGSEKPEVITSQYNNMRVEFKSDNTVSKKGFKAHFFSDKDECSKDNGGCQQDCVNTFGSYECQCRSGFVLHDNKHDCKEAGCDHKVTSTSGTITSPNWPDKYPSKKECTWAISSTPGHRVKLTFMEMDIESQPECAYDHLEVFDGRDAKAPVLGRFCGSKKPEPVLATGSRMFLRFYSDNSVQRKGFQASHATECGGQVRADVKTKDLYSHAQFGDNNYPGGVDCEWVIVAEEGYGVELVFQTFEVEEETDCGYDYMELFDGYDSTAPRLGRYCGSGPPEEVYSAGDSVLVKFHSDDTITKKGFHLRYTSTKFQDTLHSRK
smiles,measurement,setting,value
COC(=O)[C@H](CC(C)C)NC(=O)[C@@H]1CCCN1C(=O)[C@H](C)CP(=O)(O)[C@H](Cc1ccccc1)NC(=O)[C@H](CCCCN)NC(=O)[C@@H]1CCCN1C(=O)OCc1ccccc1 [Z-PKF(PC)APL-O-Me] (Cbz-PK[X1]PL-OMe),inhibition of PCP enzyme activity (transformation of the DABCYL-EDANS-decapeptide substrate as a function of time),[1],almost completely inhibited
same,inhibition of meprin in its transformation of the fluorescence-labeled peptide,[2],only slightly inhibited
